Where “and” joins values, the source holds several entries; their conditions need not be identical. Equal entries are not always repeated. Where two headings read alike, the source gives them in different places.
Columns and labels:
human P450 51A1 [1] = molecular target: T1, human P450 51A1 (Homo sapiens, UniProt Q16850); test: Steady-state LC-UV assay of sterol oxidation to dihydro FF-MAS by reconstituted P450 51A1
T1 sequence (Q16850 1-509): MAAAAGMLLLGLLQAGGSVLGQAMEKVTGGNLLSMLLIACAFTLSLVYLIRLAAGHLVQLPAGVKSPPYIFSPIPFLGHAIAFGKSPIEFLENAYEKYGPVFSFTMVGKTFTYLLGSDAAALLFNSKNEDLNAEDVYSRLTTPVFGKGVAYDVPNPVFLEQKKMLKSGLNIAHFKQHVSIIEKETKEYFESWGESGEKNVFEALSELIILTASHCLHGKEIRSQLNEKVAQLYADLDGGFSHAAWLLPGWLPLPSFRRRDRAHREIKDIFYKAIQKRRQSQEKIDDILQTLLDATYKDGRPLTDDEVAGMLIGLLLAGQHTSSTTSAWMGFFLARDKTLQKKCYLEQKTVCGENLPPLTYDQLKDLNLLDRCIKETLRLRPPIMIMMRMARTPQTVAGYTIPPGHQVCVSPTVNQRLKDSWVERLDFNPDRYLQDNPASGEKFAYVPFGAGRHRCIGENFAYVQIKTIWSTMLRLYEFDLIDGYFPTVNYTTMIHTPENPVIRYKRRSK
Protocol: Steady-state incubations (500 μl) were generally done at 37 °C with 0.025 μM P450 51A1, 0.10 μM NADPH-P450 reductase, 100 μM L-α-dilauroyl-sn-glycero-3-phosphocholine, 50 mM potassium phosphate buffer (pH 7.4), 10% (v/v) glycerol, and an indicated concentration of each sterol (in 45% (w/v) HPCD). […] The sterols (stored at 4 °C) were prepared as described above and were heated to 37 °C and sonicated prior to use. Sterol working stocks were diluted in HPCD to ensure a constant concentration of cyclodextrin in each reaction. […] Accordingly, all reactions were done with this concentration of glycerol.
Reactions were preincubated (5 min, 37 °C) prior to initiation with an NADPH-regenerating system (0.5 mM NADP^+, 10 mM glucose 6-phosphate, and 2 μg ml^−1 glucose 6-phosphate dehydrogenase) ([60]) and were stopped after 5 min with the addition of CH2Cl2 (5 ml). (The NADPH-generating system, in addition to lower cost than NADPH, drives the reaction to avoid inhibition of the reductase by accumulated NADP^+). For the 14α-aldehyde, the times of preincubation and reaction were reduced (to 2 min and 1 min, respectively). The quenched mixture was centrifuged (2000g, 5 min), and 4 ml of the bottom (organic) layer was transferred to vials and brought to dryness under a stream of N2 gas. The dried residue was resuspended in CH3OH (100 μl) and was analyzed by UPLC using a 2.1 mm × 100 mm (1.7 μm) octadecylsilane (C18) column (held at 25 °C) and a Waters Acquity UPLC system. Samples (4 °C) were injected (10 μl) at a flow rate of 0.20 ml min^−1 using an isocratic mobile phase of CH3CN (only). The product (FF-MAS) was detected using a Waters Acquity photodiode array detector set at 250 nm (Fig. 4B). Data were processed using the MassLynx software (http://www.waters.com/waters/en_US/MassLynx-Mass-Spectrometry-Software-/nav.htm?cid=513164&locale=en_US), and the amount of product formed was calculated by comparison to a twelve-point dihydro FF-MAS standard curve. Determination of kcat and Km for each reaction was carried out by fitting the data to a Michaelis–Menten hyperbola, which was done using GraphPad Prism.
Incubations were run in triplicate, and the mean values (±SD) were calculated and plotted. The linear regression fits include the Prism error estimates for internal fitting (SE).

human P450 51A1 [2] = test: Kinetic modeling (KinTek Explorer) of the single-turnover time course; settings: for k^+ of sterol binding to P450 51A1 (kon) used for fitting: all kon set at this value; for k^- of oxidation step of the P450-sterol complex: irreversible, set to zero; for k^+ of oxidation step of the P450-sterol complex: label = sterol oxidized in the step
Excerpt: The initial koff rate constants used in fitting were the koff rates measured in the stopped-flow trap experiments (Fig. 9). All three oxidation reactions are irreversible, and thus k-2, k-4, and k-6 were set to zero.
Data were imported into KinTek Explorer software (v. 11.01, KinTek, https://kintekcorp.com/software) ([63], [64]) as txt files and processed using an Apple computer (operating system 11.6.2).

human P450 51A1 [3] = molecular target: T1, human P450 51A1; test: Spectral (difference spectroscopy) Kd estimates of P450 51A1-sterol complexes; type: binding; set-up: made in house; host or cells: Escherichia coli
Protocol: Kd values were estimated by difference spectroscopy. P450 51A1 (1.0 μM) was in each of two glass cuvettes (in 100 mM potassium phosphate buffer, pH 7.4) and a baseline was recorded (OLIS-Amino DW2a). Aliquots of a solution of each sterol–HPCD complex were added to the sample cuvette and an equivalent amount of HPCD was added to the reference cuvette, and spectra were recorded. The time between the collection of individual spectra was ∼3 min. The maximum absorbance difference (usually ΔA390-A418) was plotted versus the nominal concentration of added sterol, and the data were fit to hyperbolae in GraphPad Prism software (GraphPad, https://www.graphpad.com), using a quadratic equation to correct the ligand concentration for the enzyme-bound concentration (used as Y=B+(A/2)∗(1/E)∗((Kd+E+X)-sqrt((Kd + E+X)^∧2-(4∗E∗X)) in Prism software). The linear regression fits include the internal error estimates (SE).

human P450 51A1 [4] = molecular target: T1, human P450 51A1; test: Stopped-flow koff measurements of P450 51A1-sterol complexes with ketoconazole trap; type: binding; set-up: made in house; host or cells: Escherichia coli; settings: 23 °C, 10 μM ketoconazole trap, 1 μM P450 51A1
Protocol: All assays were done at 23 °C in an OLIS-RSM 1000 stopped-flow spectrophotometer, collecting data every 1 ms over a range of 332 to 565 nm with slit widths of 1.24 mm (8 nm bandpass) and gratings with 400 lines/mm and 500 nm blaze. One syringe contained 20 μM ketoconazole dissolved in 100 mM potassium phosphate buffer (pH 7.4). In a preliminary experiment in which this was mixed with an equal volume of 2 μM P450 51A1 (same buffer), the observed rate of binding (ΔA430) was 25 s^−1.
P450 51A1 (2 μM) was premixed with an equivalent concentration of each of the sterols (in HPCD). Each of these solutions was placed in a drive syringe and rapidly mixed with 20 μM ketoconazole (yielding final concentrations of 1 μM P450 51A1 and 10 μM ketoconazole). The rate of the ΔA430-A390 change was used as the koff rate, that is, the rate at which the sterol left the P450 and allowed it to bind to the trap ligand ketoconazole.

[5] = 1.0 μM P450 51A1, quadratic fit

Q: For `CC(C)CCCC(C)[C@H]1CC[C@@]2(C=O)C3=C(CC[C@]12C)[C@@]1(C)CC[C@H](O)C(C)(C)C1CC3` (stereo partly drawn) [14α-CHO dihydrolanosterol, 24,25-dihydro-14α-formyl lanosterol], which “kcat relative to dihydrolanosterol” value (human P450 51A1 [1]; oxidation to dihydro FF-MAS) is on record?
A: about 3 fold

Q: And the “kcat/Km relative to dihydrolanosterol” value (human P450 51A1 [1]; oxidation to dihydro FF-MAS)?
A: about 3 fold

Q: And the “Rate of FF-MAS formation (replicates)” value (human P450 51A1 [1]; substrate 0.25 µM, listed as 14-CHO dihydrolanosterol)?
A: 2.969 min⁻¹ and 3.528 min⁻¹ and 3.126 min⁻¹

Q: What about the “Rate of FF-MAS formation (replicates)” value (human P450 51A1 [1]; substrate 0.50 µM, listed as 14-CHO dihydrolanosterol) of the same compound?
A: 7.815 min⁻¹ and 6.139 min⁻¹ and 6.658 min⁻¹

Q: What about the “Rate of FF-MAS formation (replicates)” value (human P450 51A1 [1]; substrate 0.75 µM, listed as 14-CHO dihydrolanosterol) of the same compound?
A: 11.25 min⁻¹ and 9.099 min⁻¹ and 10.0823 min⁻¹

Q: What about the “Rate of FF-MAS formation (replicates)” value (human P450 51A1 [1]; substrate 1.00 µM, listed as 14-CHO dihydrolanosterol) of the same compound?
A: 13.4 min⁻¹ and 13.67 min⁻¹ and 13.3 min⁻¹

Q: What about the “Rate of FF-MAS formation (replicates)” value (human P450 51A1 [1]; substrate 1.50 µM, listed as 14-CHO dihydrolanosterol) of the same compound?
A: 18.85 min⁻¹ and 19.74 min⁻¹ and 19.25 min⁻¹

Q: And the “Rate of FF-MAS formation (replicates)” value (human P450 51A1 [1]; substrate 2.50 µM, listed as 14-CHO dihydrolanosterol)?
A: 28.46 min⁻¹ and 30.67 min⁻¹ and 32.21 min⁻¹

Q: What about the “Rate of FF-MAS formation (replicates)” value (human P450 51A1 [1]; substrate 5.00 µM, listed as 14-CHO dihydrolanosterol) of the same compound?
A: 52.7446 min⁻¹ and 50.4 min⁻¹ and 54.73 min⁻¹

Q: And the “Rate of FF-MAS formation (replicates)” value (human P450 51A1 [1]; substrate 7.50 µM, listed as 14-CHO dihydrolanosterol)?
A: 65.76 min⁻¹ and 62.41 min⁻¹ and 66.11 min⁻¹

Q: What about the “Rate of FF-MAS formation (replicates)” value (human P450 51A1 [1]; substrate 10.00 µM, listed as 14-CHO dihydrolanosterol) of the same compound?
A: 70.12 min⁻¹ and 63.34 min⁻¹ and 67.78 min⁻¹

Q: And the “Rate of FF-MAS formation (replicates)” value (human P450 51A1 [1]; substrate 15.00 µM, listed as 14-CHO dihydrolanosterol)?
A: 72.18 min⁻¹ and 76.97 min⁻¹ and 69.96 min⁻¹

Q: What about the “k^+ of sterol binding to P450 51A1 (kon) used for fitting” value (human P450 51A1 [2]) of the same compound?
A: 2e+06 M⁻¹ s⁻¹

Q: What about the “k^- of oxidation step of the P450-sterol complex” value (human P450 51A1 [2]) of the same compound?
A: 0

Q: What about the “k^+ of oxidation step of the P450-sterol complex” value (human P450 51A1 [2]; optimized model) of the same compound?
A: 2.5 s⁻¹

Q: What about the Kd (human P450 51A1 [3]; [5]) of the same compound?
A: sub-μM

Q: What about the Kd (human P450 51A1 [3]; 1.0 μM P450 51A1, quadratic fit, read-out: Kd) of the same compound?
A: 120 ± 30 nM

Q: What about the koff (human P450 51A1 [4]) of the same compound?
A: 0.059 ± 0.001 s⁻¹

Q: For `CC(C)CCCC(C)[C@H]1CC[C@@]2(C)C3=C(CC[C@]12C)[C@@]1(C)CC[C@H](O)C(C)(C)C1CC3` (stereo partly drawn) [dihydrolanosterol, 24,25-dihydrolanosterol], which kcat (human P450 51A1 [1]; oxidation to dihydro FF-MAS (epi-dihydro FF-MAS from epi substrate), 37 °C) is on record?
A: 0.50 ± 0.03 s⁻¹ and 0.50 s⁻¹

Q: What about the “Rate of FF-MAS formation (replicates)” value (human P450 51A1 [1]; substrate 0.25 µM) of the same compound?
A: 0.9 min-1 and 1.0 min-1 (2×)

Q: What about the “Rate of FF-MAS formation (replicates)” value (human P450 51A1 [1]; substrate 0.50 µM) of the same compound?
A: 2.4 min-1 (2×) and 2.1 min-1

Q: And the “Rate of FF-MAS formation (replicates)” value (human P450 51A1 [1]; substrate 0.75 µM)?
A: 3.4 min⁻¹ and 3.0 min⁻¹ and 3.7 min⁻¹

Q: And the “Rate of FF-MAS formation (replicates)” value (human P450 51A1 [1]; substrate 1.00 µM)?
A: 4.1 min⁻¹ and 4.3 min⁻¹ and 3.4 min⁻¹

Q: What about the “Rate of FF-MAS formation (replicates)” value (human P450 51A1 [1]; substrate 1.50 µM) of the same compound?
A: 4.8 min⁻¹ and 6.3 min⁻¹ and 5.8 min⁻¹

Q: What about the “Rate of FF-MAS formation (replicates)” value (human P450 51A1 [1]; substrate 2.50 µM) of the same compound?
A: 12.8 min⁻¹ and 12.1 min⁻¹ and 9.4 min⁻¹

Q: What about the “Rate of FF-MAS formation (replicates)” value (human P450 51A1 [1]; substrate 5.00 µM) of the same compound?
A: 16.4 min-1 and 15.6 min-1 (2×)

Q: And the “Rate of FF-MAS formation (replicates)” value (human P450 51A1 [1]; substrate 7.50 µM)?
A: 21.8 min⁻¹ and 17.6 min⁻¹ and 18.3 min⁻¹

Q: What about the “Rate of FF-MAS formation (replicates)” value (human P450 51A1 [1]; substrate 10.00 µM) of the same compound?
A: 20.3 min⁻¹ and 21.5 min⁻¹ and 22.5 min⁻¹

Q: What about the “Rate of FF-MAS formation (replicates)” value (human P450 51A1 [1]; substrate 15.00 µM) of the same compound?
A: 19.1 min⁻¹ and 23.3 min⁻¹ and 21.3 min⁻¹

Q: What about the “k^+ of sterol binding to P450 51A1 (kon) used for fitting” value (human P450 51A1 [2]) of the same compound?
A: 2e+06 M⁻¹ s⁻¹

Q: And the “k^- of oxidation step of the P450-sterol complex” value (human P450 51A1 [2])?
A: 0

Q: What about the “k^- of sterol binding to P450 51A1 (koff) used for fitting” value (human P450 51A1 [2]; optimized model) of the same compound?
A: 0.075 s⁻¹

Q: And the “k^+ of oxidation step of the P450-sterol complex” value (human P450 51A1 [2]; optimized model)?
A: 7.5 s⁻¹

Q: And the Kd (human P450 51A1 [3])?
A: 230 ± 100 nM

Q: What about the Kd (human P450 51A1 [3]; [5]) of the same compound?
A: sub-μM

Q: What about the koff (human P450 51A1 [4]) of the same compound?
A: 0.054 ± 0.01 s⁻¹

Reference: paper PMC10285260, “Processive kinetics in the three-step lanosterol 14α-demethylation reaction catalyzed by human cytochrome P450 51A1” (The Journal of Biological Chemistry, 2023)
